Measurements: the supplement of paper PMC11208160

Test: recombinant barcode read abundance after kanamycin selection (control-corrected) (log10(CPM+1)); higher = more efficient recombination; sequences stand for … in AGTGCAGAGAAAATCGGCCAGTTTTCTCTGCCTGCAGTCCGCATGCCGT…AGATTTATGCAGCGGACTGCCTTTCTCCCAAAGTGATAAACCGGACAGTATCATGGACCGGTTTTCCCGGTAATCCGTATTTGCAAGGTTGGTTTCACT; site = the 11-nt target
In short: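 Recombination efficiency draws on barcodes counted at recombinant junctions in a pooled E. coli screen of targets paired with IS621 bridge RNA target-binding loops. The counts were converted to counts per million, averaged and corrected against the chloramphenicol/ampicillin LB agar control, then reported as log10(CPM+1). Selection plates held chloramphenicol/ampicillin/kanamycin with 0.1 mM IPTG, with two replicates per condition.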
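Note: IS621 recombinase and bridge RNA in Escherichia coli cells.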

Row | Sequence | recombinant barcode read abundance (log10)
1 | GGGTAACCTTGGGTTCTAACCTGTTGCCT (site CGGTAACCTAG) | 0.064
2 | GGGTAACCTTGGGTTCTAACCTGTTGCCT (site GGGTAACCTAG) | 0.406
3 | GGGTAACCTTGGGTTCTAACCTGTTGCCT (site TGGTAACCTAG) | 0.19
4 | GGGTCCACTTGGGTTCTAACCTGTTGCCA (site GGGTCCACTCC) | 0.127
5 | GGGTCCACTTGGGTTCTAACCTGTTGCCA (site GGGTCCACTTG) | 1.44
6 | GGGTCCTCTTGGGTTCTAACCTGTTGCCA (site GGGTCCTCTAG) | 1.69
7 | GGGTCCTCTTGGGTTCTAACCTGTTGCCA (site GGGTCCTCTCG) | 0.29
8 | GGGTCCTCTTGGGTTCTAACCTGTTGCCA (site GGGTCCTCTGG) | 0.0677
9 | GGGTCCTCTTGGGTTCTAACCTGTTGCCA (site GGGTCCTCTTG) | 1.29
10 | GGGTCCTCTTGGGTTCTAACCTGTTGCCT (site GGGTCCTCTAG) | 2.24
11 | GGGTCCTCTTGGGTTCTAACCTGTTGCCT (site GGGTCCTCTCG) | 0.776
12 | GGGTCCTCTTGGGTTCTAACCTGTTGCCT (site GGGTCCTCTGG) | 0.578
13 | GGGTCCTCTTGGGTTCTAACCTGTTGCCT (site GGGTCCTCTTG) | 0.155
14 | GGGTCGGCTTGGGTTCTAACCTGTTGCGA (site GGGTCGGCTAC) | 0.231
15 | GGGTCGGCTTGGGTTCTAACCTGTTGCGA (site GGGTCGGCTCC) | 0.552
16 | GGGTCGGCTTGGGTTCTAACCTGTTGCGA (site GGGTCGGCTGC) | 0.179
17 | GGGTCGGCTTGGGTTCTAACCTGTTGCGA (site GGGTCGGCTTC) | 2.27
18 | GGTAAAGCTTGGGTTCTAACCTGTTGCCT (site GGTAAAGCTAG) | 0.71
19 | GGTAAAGCTTGGGTTCTAACCTGTTGCCT (site GGTATAGCTAG) | 0.216
20 | GGTAATACTTGGGTTCTAACCTGTTGCAT (site AACGTACCTTG) | 0.191
21 | GGTAATACTTGGGTTCTAACCTGTTGCAT (site GGTAATACTAT) | 0.957
22 | GGTACGCCTTGGGTTCTAACCTGTTGCAT (site GGTACGACTCT) | 0.17

Row | Sequence | recombinant barcode read abundance (log10)
23 | GGTACGCCTTGGGTTCTAACCTGTTGCAT (site GGTACGCCTAT) | 0.685
24 | GGTAGGACTTGGGTTCTAACCTGTTGCCT (site AGTAGGACTAG) | 0.239
25 | GGTAGGACTTGGGTTCTAACCTGTTGCCT (site CGTAGGACTAG) | 0.0936
26 | GGTAGGACTTGGGTTCTAACCTGTTGCCT (site GGTAGGACTAG) | 0.278
27 | GGTAGGACTTGGGTTCTAACCTGTTGCCT (site TGTAGGACTAG) | 0.0335
28 | GGTATGACTTGGGTTCTAACCTGTTGCCT (site AGTATGACTAG) | 0.595
29 | GGTATGACTTGGGTTCTAACCTGTTGCCT (site CGTATGACTAG) | 0.197
30 | GGTATGACTTGGGTTCTAACCTGTTGCCT (site GGTATGACTAG) | 0.956
31 | GGTATGACTTGGGTTCTAACCTGTTGCCT (site TGTATGACTAG) | 0.0723
32 | GGTATGTCTTGGGTTCTAACCTGTTGCCT (site AGTATGTCTAG) | 0.204
33 | GGTATGTCTTGGGTTCTAACCTGTTGCCT (site CGTATGTCTAG) | 0.0446
34 | GGTATGTCTTGGGTTCTAACCTGTTGCCT (site GGTATGTCTAG) | 1.96
35 | GGTATGTCTTGGGTTCTAACCTGTTGCCT (site TGTATGTCTAG) | 0.106
36 | GGTCATTCTTGGGTTCTAACCTGTTGCCT (site GGTCATACTAG) | 0.0311
37 | GGTCATTCTTGGGTTCTAACCTGTTGCCT (site GGTCATCCTAG) | 0.157
38 | GGTCATTCTTGGGTTCTAACCTGTTGCCT (site GGTCATGCTAG) | 0.0124
39 | GGTCATTCTTGGGTTCTAACCTGTTGCCT (site GGTCATTCTAG) | 0.626
40 | GGTCGGACTTGGGTTCTAACCTGTTGCCA (site GGACGGACTTG) | 0.281
41 | GGTCGGACTTGGGTTCTAACCTGTTGCCA (site GGTCGGACTTG) | 0.548
42 | GGTCGGACTTGGGTTCTAACCTGTTGCGT (site GGAGGGACTAC) | 0.0819
43 | GGTCGGACTTGGGTTCTAACCTGTTGCGT (site GGTCGGACTAC) | 2.17
44 | GGTCGTACTTGGGTTCTAACCTGTTGCCT (site CCGTTGTCTTA) | 0.177

Row | Sequence | recombinant barcode read abundance (log10)
45 | GGTCGTACTTGGGTTCTAACCTGTTGCCT (site GGTCGTACTAG) | 0.286
46 | GGTGAGCCTTGGGTTCTAACCTGTTGCGT (site CACACTACTCA) | 0.0427
47 | GGTGAGCCTTGGGTTCTAACCTGTTGCGT (site GGTGAGCCTAC) | 2.68
48 | GGTGCCTCTTGGGTTCTAACCTGTTGCAT (site GGGGCCTCTCT) | 0.258
49 | GGTGCCTCTTGGGTTCTAACCTGTTGCAT (site GGTGCCTCTAT) | 1.46
50 | GGTGCGGCTTGGGTTCTAACCTGTTGCCT (site AGTGCGGCTAG) | 0.492
51 | GGTGCGGCTTGGGTTCTAACCTGTTGCCT (site CGTGCGGCTAG) | 0.139
52 | GGTGCGGCTTGGGTTCTAACCTGTTGCCT (site GGTGCGGCTAG) | 0.494
53 | GGTGCGGCTTGGGTTCTAACCTGTTGCCT (site TGTGCGGCTAG) | 0.505
54 | GGTGGATCTTGGGTTCTAACCTGTTGCCT (site GGTGACTCTAG) | 0.0125
55 | GGTGGATCTTGGGTTCTAACCTGTTGCCT (site GGTGGATCTAG) | 0.813
56 | GGTGGCTCTTGGGTTCTAACCTGTTGCCA (site GGTGGCTCTTG) | 0.607
57 | GGTGGCTCTTGGGTTCTAACCTGTTGCCA (site TAATCTCCTAC) | 0.0407
58 | GGTGGGTCTTGGGTTCTAACCTGTTGCAT (site GGTGGGTCTAA) | 0.345
59 | GGTGGGTCTTGGGTTCTAACCTGTTGCAT (site GGTGGGTCTAC) | 0.128
60 | GGTGGGTCTTGGGTTCTAACCTGTTGCAT (site GGTGGGTCTAG) | 0.805
61 | GGTGGGTCTTGGGTTCTAACCTGTTGCAT (site GGTGGGTCTAT) | 2.25
62 | GGTGGGTCTTGGGTTCTAACCTGTTGCCT (site GGTGGGTCTAA) | 0.123
63 | GGTGGGTCTTGGGTTCTAACCTGTTGCCT (site GGTGGGTCTAC) | 0.123
64 | GGTGGGTCTTGGGTTCTAACCTGTTGCCT (site GGTGGGTCTAG) | 1.29
65 | GGTGGGTCTTGGGTTCTAACCTGTTGCCT (site GGTGGGTCTAT) | 0.382
66 | GGTTCCTCTTGGGTTCTAACCTGTTGCCT (site GGATCGTCTAG) | 0.0714
